{"source": "ChEMBL document CHEMBL1156376", "about": "“Clathsterol, a novel anti-HIV-1 RT sulfated sterol from the sponge Clathria species” (J Nat Prod, 2001)", "molecular_target": "Human immunodeficiency virus type 1 reverse transcriptase (Human immunodeficiency virus 1) (UniProt Q72547)", "assay": "Inhibition of HIV1 reverse transcriptase at 10 uM", "note": "Activity calls are given as the source filed them. The calls are words filed in the database; no cut-off is given here."}
{"smiles": "CCCC(=O)OC(C(CC)C(C)C)C(OC(=O)CCC)[C@@H](C)[C@H]1[C@@H](O)[C@H](OC(C)=O)[C@H]2[C@@H]3CCC4C[C@H](OS(=O)(=O)O)[C@@H](OS(=O)(=O)O)C[C@]4(C)[C@H]3CC[C@@]21C", "note": "(stereo partly specified)", "values": [{"measurement": "Activity", "value": "Active"}]}
